Measured values reported in ChEMBL document CHEMBL1132600 (J Med Chem, 1999).

What follows are molecules tested against Cannabinoid receptor 1 (Rattus norvegicus, UniProt P20272) (assay: Tested for binding affinity to Cannabinoid receptor 1).
Sequence of Cannabinoid receptor 1 (P20272 whole entry): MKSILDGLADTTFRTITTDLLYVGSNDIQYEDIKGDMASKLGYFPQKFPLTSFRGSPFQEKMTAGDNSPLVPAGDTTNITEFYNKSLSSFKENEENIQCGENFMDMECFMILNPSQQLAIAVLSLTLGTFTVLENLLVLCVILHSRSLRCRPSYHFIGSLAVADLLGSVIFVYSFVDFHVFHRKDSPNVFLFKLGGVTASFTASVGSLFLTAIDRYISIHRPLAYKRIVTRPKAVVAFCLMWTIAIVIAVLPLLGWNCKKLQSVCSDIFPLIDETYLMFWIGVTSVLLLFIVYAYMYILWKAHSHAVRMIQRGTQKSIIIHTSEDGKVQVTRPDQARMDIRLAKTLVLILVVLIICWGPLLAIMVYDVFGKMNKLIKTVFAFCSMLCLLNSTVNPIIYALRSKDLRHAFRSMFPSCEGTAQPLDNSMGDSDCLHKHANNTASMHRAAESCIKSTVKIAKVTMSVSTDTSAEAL

| Structure (SMILES) | Ki [nM] |
| --- | --- |
| CCCCC/C=C\C/C=C\C/C=C\C/C=C\CCCC(=O)N(C)CCO | 4980 |
| CCCCC/C=C\C/C=C\C/C=C\C/C=C\CCCC(=O)NC(C)(C)CO | 151 |
| CCCCCCCC/C=C\CCCCCCCC(=O)N[C@@H](C)CO | > 10000 |
| CCCCC/C=C\C/C=C\C/C=C\C/C=C\CCCC(=O)Nc1ccc(CO)cc1 | > 3000 |
| CCCCC/C=C\C/C=C\C/C=C\C/C=C\CCCC(=O)NC1CCC(O)CC1 (stereo not drawn) | 217 |
| CCCCC/C=C\C/C=C\C/C=C\C/C=C\CCCC(=O)NC[C@H](C)O | 26 |
| CCCCC/C=C\C/C=C\C/C=C\C/C=C\CCCC(=O)NC[C@@H](C)O | 119 |
| CCCCC/C=C\C/C=C\CCCCCCCC(=O)N[C@@H](C)CO | > 10000 |
| CCCCC/C=C\C/C=C\C/C=C\C/C=C\CCC(C)(C)C(=O)NCCO | 72.2 |
| CCCCC/C=C\C/C=C\C/C=C\C/C=C\CCCC(=O)NCCF | 8.6 |
| CCCCC/C=C\C/C=C\C/C=C\C/C=C\CCCC(N)=O [ARACHIDONAMIDE] | 9600 |
| CCCCCCCCCCCCCCCCCC(=O)NCCO [N-(2-HYDROXYETHYL)STEARAMIDE] | 217 |
| CCCCCCCC/C=C\CCCCCCCC(=O)NCCO [OLEOYLETHANOLAMIDE] | > 10000 |
